Reference: patent US4024252A, “2-(5-Ethyl-6-bromothiazolo[3,2-b]-5-triazolyl)thiophosphonate esters, compositions and method of use” (priority 1973, dated 1977)
≈ marks a conversion by molar mass, not a printed value. Read-outs that look alike come from different tables or passages of the source.

What was measured:
[1] = test system: house flies (Musca domestica Linne); test: Test 1 Insecticidal Activity against Fly; assay type: in vivo; details: topical; for mortality at 0.25 µg/fly: 0.25γ/a fly; for mortality at 0.5 µg/fly: 0.5γ/a fly
Protocol: Fixed concentration of acetone solution containing test compound were prepared.
20 pieces of female adults of house flies (Musca domestica Linne) were tested with 1 μl of acetone solution at their thoracie dorsal by microcylinge and kept at a temperature of 25° C and at a humidity of 65%. 24 hours and 48 hours after treatment, dead flies were counted and mortality (%) was calculated.

[2] = test system: Cabbage armyworm (Leucania separate Walker); test: Test 2 Insecticidal Activity against Cabbage armyworm; assay type: in vivo
Protocol: 10 Multigeneration bred armyworms (Leucania separate Walker) were used for one experimental zone.
[…] Then the leaf was set an filter paper having 9 cm diameter in a schale. The test insects were inoculated into the dish and the cover was put on it. After 1 day and 3 days from inoculation, dead insects were counted and mortality (%) were calculated. The results were shown in

[3] = test system: desert spider mite (Tetranychus desertorum Banks); test: Test 3 Test for Control of Mite; assay type: in vivo; details: 72 h, read-out: Rating of mortality
Protocol: About 30 adult female mites of desert spider mite (Tetranychus desertorum Banks) laid on main leaves of the potted kidney bean plants grown 7 to 10 days stage after aprouting. One day later, the wounded mites were removed from the plants. The compounds to be tested were sprayed on the plants as water suspension of emulsifiable concentrate prepared by the method of Example 6. After 1 day and 3 days from spraying, dead mites were counted and mortality (%) was calculated.

[4] = test system: Rice stem borer (Chilo suppressalis Walker); test: Test 4 Insecticidal Activity against Rice stem borer; assay type: in vivo; details: 168 h, a week after spraying
Protocol: 20 hatched nymph of Rice stem borer (Chilo suppressalis Walker) were inoculated to the potted rice (height: 30 - 40 cm, number: 4/pot). A week after inoculation, 30 ml of fixed concentration of solution containing test compound were sprayed on the rice in which hatched nymph were inhabiting and the pots were kept at the room temperature. A week after spraying, the rice was opened, dead Rice stem borers were counted and mortality (%) was calculated.

[5] = test system: tobacco cutworms (Prodenia litura Fabricius); test: Test 5 Test for Control of Tobacco cutworm; assay type: in vivo; details: 72 h, 3 days; for mortality at 31.3 ppm: 31.3 p.p.m.; for mortality at 62.5 ppm: 62.5 p.p.m.; for mortality at 125 ppm: 125 p.p.m.
Protocol: Then the leaf and 5 tobacco cutworms (Prodenia litura Fabricius) of 3 stages larva were put into a covered dish.
The test was carried out twice. After 3 days from inoculation, dead insects were counted and mortality (%) was calculated.

[6] = test system: northern house mosquito (Culex pipiens molestus Forskal); test: Test 6 Insecticidal Activity against Mosquito; assay type: in vivo; details: 24 hours after inoculation, aqueous suspension of wettable powder
Protocol: An aqueous suspension of formulated wettable powder were poured in 200 ml beaker and in which 20 northern house mosquito (Culex pipiens molestus Forskal) were inoculated.

[7] = Toxicity Test 1, acute oral toxicity; details: in vivo, mouse; for LD50: oral; for LD50 at 336 h: po, mice, stomach tube, 25% aqueous gum arabic, 2 weeks (Table 7)
Source text: Suspension of the test compound in 25% aqueous solution of gum arabic was compulsorily treated to six mice by means of a stomack tube and inspection had been made for 2 weeks.

[8] = Toxicity Test 2, medium tolerated limit in carp; assay type: in vivo, Cyprinus carpio; details: water
Protocol: The test compound was dissolved in dimethylformamide and said solution was added to 20 liters of water containing 10 carps (Cyprinus carpio) in a fixed concentration.
Dead fish within 48 hours from the addition of test compounds was counted.
The results were shown in Table 8 as medium tolerated limit (TLm).
*TLm is the concentration of test compound which half the number of fish

[9] = 48 hours (Table 8), read-out: TLm (medium tolerated limit)
[10] = 48 hrs, read-out: medium tolerance limit (48 hrs) for carp

CCOP(=S)(OCC)Oc1nc2scc(C)n2n1 [Comparison compound, O,O-diethyl-2-(5-methylthiazolo[3,2-b]-s-triazolyl)thionophosphate, reference compound]
mortality at 0.25 µg/fly ([1]; 24 hrs.): 0% | mortality at 0.25 µg/fly ([1]; 48 hrs.): 10% | mortality at 0.5 µg/fly ([1]; 24 hrs.): 70% | mortality at 0.5 µg/fly ([1]; 48 hrs.): 70% | mortality at 15.7 ppm ([2]; 24 h): 30% | mortality at 7.8 ppm ([2]; 24 h, 1 day): 0% | mortality at 31.3 ppm ([2]; 24 h, 1 day): 70% | mortality at 15.7 ppm ([2]; 72 h): 80% | mortality at 7.8 ppm ([2]; 72 h, 3 days): 0% | mortality at 31.3 ppm ([2]; 72 h, 3 days): 100% | mortality at 500 ppm [3]: 100% | mortality at 15.6 ppm ([4]; 15.6 ppm): 84% | mortality at 31.3 ppm [4]: 100% | mortality at 31.3 ppm [5]: 0% | mortality at 62.5 ppm [5]: 80% | mortality at 125 ppm [5]: 100% | LC50 [6]: 0.04 µg/mL (≈ 0.13 µM) | LD50 [7]: 33 to 50 mg/kg | LD50 at 336 h [7]: 33 to 50 mg/kg | LC50 at 48 h [8, 9]: < 0.5 µg/mL

CCc1c(Br)sc2nc(OP(=S)(OC)OC)nn12 [Example 1, O,O-Dimethyl 2-(5-ethyl-6-bromothiazolo[3,2-b]s-triazolyl) thionophosphate]
mortality at 15.7 ppm ([2]; 24 h): 60% | mortality at 7.8 ppm ([2]; 24 h, 1 day): 50% | mortality at 31.3 ppm ([2]; 24 h, 1 day): 100% | mortality at 15.7 ppm ([2]; 72 h): 100% | mortality at 7.8 ppm ([2]; 72 h, 3 days): 90% | mortality at 31.3 ppm ([2]; 72 h, 3 days): 100% | mortality at 500 ppm [3]: 100%

CCOP(=S)(OCC)Oc1nc2sc(Br)c(CC)n2n1 [Example 2, O,O-Diethyl 2-(5-ethyl-6-bromothiazolo[3,2-b]-s-triazolyl) thionophosphate]
mortality at 0.25 µg/fly ([1]; 24 hrs.): 30% | mortality at 0.25 µg/fly ([1]; 48 hrs.): 40% | mortality at 0.5 µg/fly ([1]; 24 hrs.): 100% | mortality at 0.5 µg/fly ([1]; 48 hrs.): 100% | mortality at 15.7 ppm ([2]; 24 h): 90% | mortality at 7.8 ppm ([2]; 24 h, 1 day): 60% | mortality at 31.3 ppm ([2]; 24 h, 1 day): 100% | mortality at 15.7 ppm ([2]; 72 h): 100% | mortality at 7.8 ppm ([2]; 72 h, 3 days): 100% | mortality at 31.3 ppm ([2]; 72 h, 3 days): 100% | mortality at 500 ppm [3]: 100% | mortality at 7.8 ppm ([4]; 7.8 ppm): 91% | mortality at 31.3 ppm [4]: 100% | mortality at 15.6 ppm ([5]; 15.6 p.p.m.): 60% | mortality at 31.3 ppm [5]: 80% | mortality at 62.5 ppm [5]: 100% | mortality at 125 ppm [5]: 100% | LC50 [6]: 0.003 µg/mL (≈ 0.0075 µM) | LD50 [7]: 280 mg/kg | LD50 at 336 h [7]: 280 mg/kg | LC50 at 48 h [8, 10]: 18.5 µg/mL

CCc1c(Br)sc2nc(OP(=S)(OC(C)C)OC(C)C)nn12 [Example 3, O,O-diisopropyl 2-(5-ethyl-6-bromothiazolo[3,2-b]-s-triazolyl)thionophosphate]
mortality at 15.7 ppm ([2]; 24 h): 60% | mortality at 7.8 ppm ([2]; 24 h, 1 day): 50% | mortality at 31.3 ppm ([2]; 24 h, 1 day): 100% | mortality at 15.7 ppm ([2]; 72 h): 100% | mortality at 7.8 ppm ([2]; 72 h, 3 days): 90% | mortality at 31.3 ppm ([2]; 72 h, 3 days): 100%

CCOP(=S)(OCC)Oc1nc2sc(Br)c(C)n2n1 [O,O-diethyl-2-(5-methyl-6-bromothiazolo[3,2-b]-s-triazolyl)thionophosphate, reference compound]
LD50 [7]: 150 mg/kg | LC50 at 48 h [8, 10]: < 0.05 µg/mL

CCc1c(Br)sc2nc(OP(=S)(OC)OC)nn12 [drawing 11]
LD50 at 336 h [7]: > 200 mg/kg

CCc1c(Br)sc2nc(OP(=S)(OC(C)C)OC(C)C)nn12 [drawing 12]
LD50 at 336 h [7]: > 200 mg/kg

CCc1c(Br)sc2nc(OP(=S)(OC)OC)nn12 [drawing 15]
LC50 at 48 h [8, 9]: > 5 µg/mL

CCc1c(Br)sc2nc(OP(=S)(OC(C)C)OC(C)C)nn12 [drawing 16]
LC50 at 48 h [8, 9]: > 5 µg/mL
